Several values for one entry are separate records, joined by “and”; a condition that tells them apart may be missing. Equal values may be shown once.
Legend:
[1] = system: bone marrow polychromatic erythrocytes; experiment: In vivo bone marrow micronucleus test; set-up: species or system mouse
Description: Groups of six young adult male Crl:CD-1 (ICR) mice were treated with fexinidazole at two oral doses of 0, 500, 1000, or 2000 mg/kg given 24 h apart, and bone marrows were harvested 24 h after the second dose. Slides of bone marrow cells were prepared, Giemsa stained, and 2000 polychromatic erythrocytes per animal were scored for micronuclei.

[2] = Whole-body autoradiography; format: in vivo, rat
Description: Whole-body autoradiography in rats was conducted using [^14C]-radiolabelled fexinidazole. The site of the [^14C] label in the fexinidazole molecule on the bridging carbon atom ensured that the radioactivity would remain associated with both the sulfoxide and sulfone metabolites. The radiolabelled compound was administered at the dose of 800 mg/kg (approximately 3.7 MBq/kg, 100 µCi/kg) by gastric gavage to eight male albino Sprague Dawley rats. Two animals were sacrificed at each time point 2, 8, 24 or 48 h after administration and the quantitative radioactivity distribution in the organs and tissues was evaluated using quantitative whole-body autoradiography. […]
This study was conducted according to Protocol N° 0510-2007. A copy of the experimental protocol is included in Appendix 1.
FEXINIDAZOLE is a 5-nitroimidazole derivative biologically active against Trypanosoma parasites (T.b. rhodesiense and T.b. brucei) and useful in the treatment of the Human African Trypanosomiasis (HAT), known as sleeping sickness.
FEXINIDAZOLE is a compound currently under development by the Study Sponsor.
The objective of this study was to obtain information on the tissue distribution of radioactive drug-related material following oral administration of [14C]-FEXINIDAZOLE (800 mg/kg) to male Sprague Dawley rats.
The albino Sprague Dawley rat was chosen as the species for this study since it was one of the species used in the toxicological evaluation of the test compound. Only male animals were used as no gender differences were expected with respect to the aim of the study. The oral route of administration was chosen as this is the intended therapeutic route. The dose level was selected in agreement with the Study Sponsor and it is within the pharmacological relevant range. No overt toxicity was expected after single dosing at […]
The study was conducted on 8 male animals after single oral administration of [14C]- FEXINIDAZOLE (800 mg/kg, approximately 3.7 MBq/kg, 100 µCi/kg). The animals were sacrificed at 2, 8,24 and 48 hours after administration and each rat was analyzed by a validated Whole Body Autoradioluminography (WBA) method, in order to evaluate the quantitative tissue distribution of radioactivity.
A summary of the experimental design is reported below:
Animal no. Date of Dosing Administered Dose Samples collected and (oral administration) analyzed
M3, M4 100 µCi/kg Whole body sections
The experimental phase of the study started on June 10, 2008 and was completed on July […]
6.6. Preparation and Analysis of Dose Formulation
The test formulation was prepared on the day of dosing by suspending unlabelled FEXINIDAZOLE and [14C]-FEXINIDAZOLE (see section 6.1) in 5% Tween 80 and 0.5% Methyl cellulose 400 cP (Methocel) in water, in order to obtain [14C]- FEXINIDAZOLE at the final target concentration of 80 mg/mL, corresponding to a radioactivity concentration of about 370 kBq/mL (10 µCi/mL).
The test formulation was prepared by suspending an appropriate amount of unlabelled FEXINIDAZOLE in the dose vehicle. This formulation was homogenised using a Potter-Elvehjem homogenizer apparatus (teflon pestle of approx. 30 mm x 53 mm and glass tube of 40 mL), in order to obtain a fine suspension by up-and-down strokes, gently made by hand. The formulation was then collected and transferred from the homogeniser glass tube to the glass pot containing the [14C]-FEXINIDAZOLE.
During the preparation the test formulation was protected from light as far as possible.
The radioactivity concentration and homogeneity of the test formulation were determined, before administration, by liquid scintillation counting of triplicate weighed aliquots of test formulation. The radiolabelled test formulation was used immediately after formulation.
6.7.1. Administered Doses
The dose of [14C]-FEXINIDAZOLE was orally administered by gastric gavage at the target dose level of 800 mg/kg (radioactivity dose of about 3.7 MBq/kg, 100 µCi/kg) and at a target dose volume of about 10 mL/kg. […]

CSc1ccc(OCc2ncc([N+](=O)[O-])n2C)cc1 [Fexinidazole, 1-methyl-2-((p-(methylthio)phenoxy)methyl)-5-nitroimidazole]
Micronucleated PCE/1000 ([1]; 500 mg/kg po ×2): 1.4 | PCE/NCE ([1]; 500 mg/kg po ×2): 0.82 | Micronucleated PCE/1000 ([1]; 1000 mg/kg po ×2): 1.1 | PCE/NCE ([1]; 1000 mg/kg po ×2): 0.75 | Micronucleated PCE/1000 ([1]; 2000 mg/kg po ×2): 1.8 | PCE/NCE ([1]; 2000 mg/kg po ×2): 0.89 | in vivo micronucleus test result ([1]; oral doses up to 2 g/kg): confirmed the lack of clastogenicity | brain-to-blood concentration ratio of radioactivity ([2]; 800 mg/kg po, all times): 0.4–0.6 | Mean radioactivity concentration ([2]; Blood, 2h): 303.2 µgeq/g | Mean radioactivity concentration ([2]; Blood, 8h): 273.0 µgeq/g | Mean radioactivity concentration ([2]; Blood, 24h): 51.3 µgeq/g | Mean radioactivity concentration ([2]; Blood, 48h): 14.3 µgeq/g | Mean radioactivity concentration ([2]; Brain, 2h): 159.7 µgeq/g | Mean radioactivity concentration ([2]; Brain, 8h): 148.5 µgeq/g | Mean radioactivity concentration ([2]; Brain, 24h): 22.4 µgeq/g | Mean radioactivity concentration ([2]; Brain, 48h): 5.7 µgeq/g | Radioactivity concentration ([2]; Intestine wall, 2h, listed as [14C]-FEXINIDAZOLE): 4900 - 5600 µgeq/g and 5281.4 µgeq/g
